Data from patent US9790215B2 (FLATLEY DISCOVERY LAB, LLC, priority 2013, dated 2017).

Molecular target: T1, human ΔF508-CFTR (Homo sapiens, UniProt P13569, DEL508-508)
T1 construct: expressed in transfected cells
Experiment: CFTR-YFP High Throughput Assay (YFP halide flux in FRT cells)
Type: cell-based
Settings: FRT cells expressing human ΔF508-CFTR and YFP; for EC50: forskolin stimulated
In short: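 FRT cells stably co-expressing human ΔF508-CFTR and halide-sensitive YFP-H148Q/I152L were treated with compound […] for 24–26 h at 37 °C (corrector mode), washed, then stimulated with 20 μM forskolin plus 30 μM potentiator P3 for 60–120 min at room temperature. Iodide-induced YFP quench (ex 500/em 540 nm) rates came from least-squares fitting.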

T1 sequence (P13569 with tags, fused parts or gaps DEL508-508): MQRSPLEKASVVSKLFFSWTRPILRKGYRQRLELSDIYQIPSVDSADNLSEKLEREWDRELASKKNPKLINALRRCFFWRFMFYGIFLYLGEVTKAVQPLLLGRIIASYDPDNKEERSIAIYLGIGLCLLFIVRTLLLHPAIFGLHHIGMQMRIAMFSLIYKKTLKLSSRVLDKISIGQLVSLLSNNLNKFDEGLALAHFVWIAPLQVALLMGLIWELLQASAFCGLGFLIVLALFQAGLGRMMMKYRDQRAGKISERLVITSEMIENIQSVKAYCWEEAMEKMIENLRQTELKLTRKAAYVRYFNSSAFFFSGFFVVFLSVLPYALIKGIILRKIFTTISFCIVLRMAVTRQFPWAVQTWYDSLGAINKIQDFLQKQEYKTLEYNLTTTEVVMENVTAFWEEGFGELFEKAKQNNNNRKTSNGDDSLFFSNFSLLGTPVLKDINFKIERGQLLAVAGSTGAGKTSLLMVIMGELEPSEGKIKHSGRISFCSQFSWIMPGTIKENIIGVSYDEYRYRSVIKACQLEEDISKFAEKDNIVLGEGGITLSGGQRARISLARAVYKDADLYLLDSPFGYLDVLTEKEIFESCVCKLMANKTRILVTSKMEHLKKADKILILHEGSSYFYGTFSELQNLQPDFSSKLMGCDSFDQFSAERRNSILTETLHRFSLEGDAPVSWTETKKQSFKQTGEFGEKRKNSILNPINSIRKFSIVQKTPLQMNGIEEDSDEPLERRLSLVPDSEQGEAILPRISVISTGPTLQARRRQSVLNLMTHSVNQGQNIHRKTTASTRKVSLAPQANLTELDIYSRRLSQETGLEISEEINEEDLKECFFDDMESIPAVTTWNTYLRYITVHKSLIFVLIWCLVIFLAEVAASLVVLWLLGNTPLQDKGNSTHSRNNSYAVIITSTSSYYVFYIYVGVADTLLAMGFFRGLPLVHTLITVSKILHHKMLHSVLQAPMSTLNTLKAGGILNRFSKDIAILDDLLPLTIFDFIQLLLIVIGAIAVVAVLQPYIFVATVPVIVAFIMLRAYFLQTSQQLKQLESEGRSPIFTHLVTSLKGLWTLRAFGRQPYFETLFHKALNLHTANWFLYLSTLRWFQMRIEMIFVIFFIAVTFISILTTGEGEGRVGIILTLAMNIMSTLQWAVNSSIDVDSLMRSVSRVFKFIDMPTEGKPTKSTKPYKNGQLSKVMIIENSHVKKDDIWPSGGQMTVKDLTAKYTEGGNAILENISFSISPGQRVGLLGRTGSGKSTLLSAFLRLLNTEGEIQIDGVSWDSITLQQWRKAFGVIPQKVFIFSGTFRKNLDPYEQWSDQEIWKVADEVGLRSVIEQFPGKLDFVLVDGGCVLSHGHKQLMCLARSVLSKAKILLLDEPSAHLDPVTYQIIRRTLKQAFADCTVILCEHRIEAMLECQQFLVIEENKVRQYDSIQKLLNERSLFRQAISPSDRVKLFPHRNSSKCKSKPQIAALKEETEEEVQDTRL

Compound | EC50 [µM] | % Efficacy (Emax normalized to the positive control)
CCN(C(=O)c1nn(-c2ccc(C)cc2)c(=O)c2c1c1ccccc1n2CC(=O)O)c1ccccc1 [Example 151, 2-(1-(ethyl(phenyl)carbamoyl)-4-oxo-3-(p-tolyl)-3H-pyridazino[4,5-b]indol-5(4H)-yl)acetic acid] | > 20 | –
CCN(C(=O)c1nn(-c2ccc(C)cc2)c(=O)c2c1c1ccccc1n2C(C)C)c1ccccc1 [Example 152, N-ethyl-5-isopropyl-4-oxo-N-phenyl-3-(p-tolyl)-4,5-dihydro-3H-pyridazino[4,5-b]indole-1-carboxamide] | > 20 | –
CCN(C(=O)c1nn(-c2ccc(C)cc2)c(=O)c2c1c1ccccc1n2Cc1ccccn1)c1ccccc1 [Example 153, N-ethyl-4-oxo-N-phenyl-5-(pyridin-2-ylmethyl)-3-(p-tolyl)-4,5-dihydro-3H-pyridazino[4,5-b]indole-1-carboxamide] | > 20 | –
N-(2,2-difluorobenzo[d][1,3]dioxol-5-yl)-N-ethyl-2-(4-(3-fluorophenyl)-1-oxophthalazin-2(1H)-yl)acetamide [Example 22] | < 10 | ++ (a range of 80%-30%)
N-ethyl-N-(4-ethylphenyl)-2-(1-oxo-4-(4-sulfamoylphenyl)phthalazin-2(1H)-yl)acetamide [Example 12] | > 20 | ++ (a range of 80%-30%)
N-ethyl-N-(4-ethylphenyl)-2-(4-(3-hydroxyphenyl)-1-oxophthalazin-2(1H)-yl)acetamide [Example 8] | < 10 | ++ (a range of 80%-30%)
N-ethyl-N-(4-ethylphenyl)-2-(4-(4-(methylsulfonyl)phenyl)-1-oxophthalazin-2(1H)-yl)acetamide [Example 15] | > 20 | + (a range of 30%-10%)

The remaining lines, values ahead:

EC50 [µM] | % Efficacy (Emax normalized to the positive control) | Compound
< 10 | – | CCN(C(=O)Cn1ncc2c([nH]c3ccccc32)c1=O)c1ccc2c(c1)OC(F)(F)O2 [Example 149, N-(2,2-difluorobenzo[d][1,3]dioxol-5-yl)-N-ethyl-2-(4-oxo-4,5-dihydro-3H-pyridazino[4,5-b]indol-3-yl)acetamide]
> 20 | – | CCN(C(=O)c1nn(-c2ccc(C)cc2)c(=O)c2c1c1ccccc1n2CC#N)c1ccccc1 [Example 150, 5-(cyanomethyl)-N-ethyl-4-oxo-N-phenyl-3-(p-tolyl)-4,5-dihydro-3H-pyridazino[4,5-b]indole-1-carboxamide]
> 20 | – | CCN(C(=O)Cn1nc(Cc2cccnc2)c2c3ccccc3n(C)c2c1=O)c1ccc2c(c1)OC(F)(F)O2 [Example 157, N-(2,2-difluorobenzo[d][1,3]dioxol-5-yl)-N-ethyl-2-(5-methyl-4-oxo-1-(pyridin-3-ylmethyl)-4,5-dihydro-3H-pyridazino[4,5-b]indol-3-yl)acetamide]
< 10 | ++ (a range of 80%-30%) | N-(2,2-difluorobenzo[d][1,3]dioxol-5-yl)-N-ethyl-2-(1-oxo-4-(4-sulfamoyl-phenyl)phthalazin-2(1H)-yl)acetamide [Example 17]
10 to 20 | ++ (a range of 80%-30%) | N-(2,2-difluorobenzo[d][1,3]dioxol-5-yl)-N-ethyl-2-(1-oxo-4-(pyridin-3-yl)phthalazin-2(1H)-yl)acetamide [Example 23]
> 20 | ++ (a range of 80%-30%) | methyl 4-(3-(2-(ethyl(4-ethylphenyl)amino)-2-oxoethyl)-4-oxo-3,4-dihydrophthalazin-1-yl)benzoate [Example 14]
